In ChEMBL document CHEMBL2069289, “Phosphodiesterase inhibitors. Part 4: design, synthesis and structure-activity relationships of dual PDE3/4-inhibitory fused bicyclic heteroaromatic-4,4-dimethylpyrazolones” (Bioorg Med Chem Lett, 2012):
Calls of active or inactive are those of the source. The calls are words filed in the database; no cut-off is given here.

Experiments:
[1] = biological target: 3',5'-cyclic-AMP phosphodiesterase 4B (Homo sapiens, UniProt Q07343); test: Inhibition of core catalytic domain of PDE4B
[2] = biological target: cGMP-inhibited 3',5'-cyclic phosphodiesterase 3A (Homo sapiens, UniProt Q14432); test: Inhibition of core catalytic domain of PDE3A
Cavia porcellus [3] = test: Bronchodilatory activity in guinea pig assessed as reduction of histamine-induced bronchoconstriction at 0.3 mg/kg, iv relative to control; type: functional; parameters: scale not given: the % may be the effect or the level left
Cavia porcellus [4] = test: Bronchodilatory activity in guinea pig assessed as reduction of histamine-induced bronchoconstriction at 0.1 mg/kg, po relative to control; type: functional
Homo sapiens = organism: Homo sapiens; test: Selectivity ratio of IC50 for core catalytic domain of PDE4B to IC50 for core catalytic domain of PDE3A

Sequence of cGMP-inhibited 3',5'-cyclic phosphodiesterase 3A (Q14432 whole entry, the tested form may be a part): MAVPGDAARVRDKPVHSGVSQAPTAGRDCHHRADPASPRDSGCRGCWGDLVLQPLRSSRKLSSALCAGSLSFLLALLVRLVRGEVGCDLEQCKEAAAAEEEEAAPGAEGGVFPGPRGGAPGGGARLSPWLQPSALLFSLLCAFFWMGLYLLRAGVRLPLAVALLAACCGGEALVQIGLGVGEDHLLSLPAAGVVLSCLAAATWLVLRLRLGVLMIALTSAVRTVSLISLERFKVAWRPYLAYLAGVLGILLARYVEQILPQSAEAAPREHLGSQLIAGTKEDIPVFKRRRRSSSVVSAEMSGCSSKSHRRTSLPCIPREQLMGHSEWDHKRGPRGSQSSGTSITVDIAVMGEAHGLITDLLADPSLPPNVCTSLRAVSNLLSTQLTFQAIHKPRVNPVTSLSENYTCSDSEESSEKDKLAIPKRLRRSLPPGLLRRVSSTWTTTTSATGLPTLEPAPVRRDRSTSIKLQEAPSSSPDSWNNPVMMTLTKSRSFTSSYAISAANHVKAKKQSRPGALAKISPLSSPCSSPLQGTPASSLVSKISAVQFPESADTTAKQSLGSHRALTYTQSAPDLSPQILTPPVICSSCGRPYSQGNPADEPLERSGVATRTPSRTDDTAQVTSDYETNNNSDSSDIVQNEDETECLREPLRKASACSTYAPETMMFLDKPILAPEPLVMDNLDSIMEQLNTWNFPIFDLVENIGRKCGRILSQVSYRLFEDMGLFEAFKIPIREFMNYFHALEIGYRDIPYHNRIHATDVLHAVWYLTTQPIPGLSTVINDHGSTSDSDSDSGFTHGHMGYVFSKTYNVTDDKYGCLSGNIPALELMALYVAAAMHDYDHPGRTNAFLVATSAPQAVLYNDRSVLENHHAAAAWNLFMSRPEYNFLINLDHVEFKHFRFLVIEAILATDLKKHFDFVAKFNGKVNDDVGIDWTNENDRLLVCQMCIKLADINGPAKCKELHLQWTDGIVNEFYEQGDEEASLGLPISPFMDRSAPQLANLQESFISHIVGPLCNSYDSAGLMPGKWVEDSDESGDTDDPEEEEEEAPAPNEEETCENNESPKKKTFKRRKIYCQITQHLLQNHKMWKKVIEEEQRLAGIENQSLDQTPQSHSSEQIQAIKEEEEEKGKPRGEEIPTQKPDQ
Sequence of 3',5'-cyclic-AMP phosphodiesterase 4B (Q07343 whole entry, the tested form may be a part): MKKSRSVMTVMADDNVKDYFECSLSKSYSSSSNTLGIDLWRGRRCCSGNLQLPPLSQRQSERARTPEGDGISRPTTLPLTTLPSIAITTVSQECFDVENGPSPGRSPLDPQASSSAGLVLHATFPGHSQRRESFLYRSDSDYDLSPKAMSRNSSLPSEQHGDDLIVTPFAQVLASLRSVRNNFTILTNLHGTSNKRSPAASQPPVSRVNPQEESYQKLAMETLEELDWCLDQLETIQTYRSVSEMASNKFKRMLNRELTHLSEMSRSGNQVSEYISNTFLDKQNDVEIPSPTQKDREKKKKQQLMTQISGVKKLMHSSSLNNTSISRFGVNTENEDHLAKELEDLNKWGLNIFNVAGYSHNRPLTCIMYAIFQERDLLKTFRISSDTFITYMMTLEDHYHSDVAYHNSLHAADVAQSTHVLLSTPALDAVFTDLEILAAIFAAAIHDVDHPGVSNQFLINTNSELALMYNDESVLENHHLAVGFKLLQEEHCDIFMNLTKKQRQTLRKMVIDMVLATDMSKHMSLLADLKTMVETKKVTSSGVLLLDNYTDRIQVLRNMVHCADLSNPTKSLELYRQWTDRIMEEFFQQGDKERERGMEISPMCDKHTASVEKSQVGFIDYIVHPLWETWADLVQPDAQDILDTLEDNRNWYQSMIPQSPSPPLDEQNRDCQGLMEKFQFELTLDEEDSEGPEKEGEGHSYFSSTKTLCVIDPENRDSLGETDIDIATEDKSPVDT

Compound | IC50 [1] | IC50 [2] | Activity (Cavia porcellus [3]) | Activity (Cavia porcellus [4]) | Ratio IC50 (Homo sapiens)
COc1ccc(C2=NNC(=O)C2(C)C)c2sc(C(F)(F)F)nc12 | 63 nM | 0.54 µM | 96% | inactive | 
CCc1cc2c(C3=NNC(=O)CC3C)ccc(OC)n2n1 (racemic) | 470 nM | 11.3 µM |  |  | 
COc1ccc(C2=NNC(=O)C2(C)C)c2cc(C(F)(F)F)sc12 | 690 nM | 5.36 µM |  |  | 
COc1ccc(C2=NNC(=O)C2(C)C)c2ccc(C(F)(F)F)nc12 | 1070 nM | 6.65 µM |  |  | 
CCc1cc2c(C3=NNC(=O)C3(C)C)ccc(CO)n2n1 | 35 nM | 1.59 µM |  |  | 
COc1ccc(C2=NNC(=O)C2(C)C)c2[nH]c(C(F)(F)F)nc12 | 200 nM | 14.1 µM |  |  | 
COc1ccc(C2=NNC(=O)C2(C)C)c2cc(C(F)(F)F)nn12 | 110 nM | 4.13 µM |  |  | 
COc1ccc(C2=NNC(=O)C2(C)C)c2cc(C(F)(F)F)oc12 | 360 nM | 1.1 µM |  |  | 
CCc1cc2c(C3=NNC(=O)C3(C)C)ccc(NC)n2n1 | 15 nM | 75.6 µM |  |  | 5000
COc1ccc(C2=NNC(=O)C2(C)C)c2cc(C(F)F)nn12 | 50 nM | 3.28 µM |  |  | 
CCc1ccc2c(C3=NNC(=O)C3(C)C)ccc(OC)c2n1 | 2580 nM | 10.1 µM |  |  | 
CCc1cc2c(C3=NNC(=O)C3(C)C)ccc(SC)n2n1 | 79 nM | 9.01 µM |  |  | 
CCc1cc2c(C3=NNC(=O)C3(C)C)ccc(CC)n2n1 | 17 nM | 2 µM |  |  | 
COc1ccc(C2=NNC(=O)C2(C)C)n2cc(C(F)(F)F)nc12 | 150 nM | 0.14 µM | 100% | >70% | 
CCc1cc2c(C3=NNC(=O)C3(C)C)ccc(C(C)=O)n2n1 | 7.5 nM | 2.5 µM |  |  | 
CCc1cc2c(C3=NNC(=O)C3(C)C)ccc(C)n2n1 | 160 nM | 2.37 µM |  |  | 
COc1ccc(C2=NNC(=O)C2(C)C)c2ccnn12 | 2930 nM | 10.8 µM |  |  | 
COc1ccc(C2=NNC(=O)CC2C)c2cc(C(F)(F)F)nn12 (single isomer, unassigned; (-)) | 42 nM | 0.36 µM |  |  | 
CCc1cc2c(C3=NNC(=O)C3(C)C)ccc(C(C)O)n2n1 (racemic) | 3.4 nM | 1.63 µM |  |  | 
COc1ccc(C2=NNC(=O)C2(C)C)c2cc(C3CC3)nn12 | 150 nM | 6.17 µM |  |  | 
CCc1cc2c(C3=NNC(=O)C3(C)C)ccc(OC)n2n1 | 410 nM | 9.21 µM |  |  | 
